One may read the inhibition as the percentage by which the read-out fell short of the control. What is called Ki is a measure of affinity in units of concentration, obtained from inhibition or displacement.

The source of these data is ChEMBL document CHEMBL1136540, “Discovery of selective phosphonamide-based inhibitors of tumor necrosis factor-alpha converting enzyme (TACE)” (Bioorg Med Chem Lett, 2003).

The target in assay [1] is T1, Matrix metalloproteinase-9 (Homo sapiens, UniProt P14780). As to conditions: 1000 nM.
T1 sequence (P14780 whole entry, the tested form may be a part): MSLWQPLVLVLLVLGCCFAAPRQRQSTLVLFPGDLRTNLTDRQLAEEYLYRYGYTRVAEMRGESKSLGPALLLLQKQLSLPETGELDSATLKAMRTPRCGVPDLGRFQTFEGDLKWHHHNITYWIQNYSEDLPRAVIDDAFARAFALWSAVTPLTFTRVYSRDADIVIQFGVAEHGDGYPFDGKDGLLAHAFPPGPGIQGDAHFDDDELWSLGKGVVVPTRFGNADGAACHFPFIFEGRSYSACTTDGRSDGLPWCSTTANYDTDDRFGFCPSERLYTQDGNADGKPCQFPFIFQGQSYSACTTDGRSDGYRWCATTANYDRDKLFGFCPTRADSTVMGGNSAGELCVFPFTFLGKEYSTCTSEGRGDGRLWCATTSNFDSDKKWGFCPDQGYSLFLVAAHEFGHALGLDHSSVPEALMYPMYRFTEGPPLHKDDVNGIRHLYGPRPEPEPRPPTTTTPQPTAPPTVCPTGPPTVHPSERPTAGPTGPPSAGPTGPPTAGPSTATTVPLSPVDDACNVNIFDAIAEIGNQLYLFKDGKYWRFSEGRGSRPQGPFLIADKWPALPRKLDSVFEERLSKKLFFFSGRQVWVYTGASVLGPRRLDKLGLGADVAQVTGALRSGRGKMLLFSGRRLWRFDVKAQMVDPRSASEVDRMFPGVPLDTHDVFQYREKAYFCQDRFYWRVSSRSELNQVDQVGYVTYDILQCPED
Description: Inhibition of recombinant human Matrix metalloprotease-9 at 1000 nM
Assay [2] addresses T2, Disintegrin and metalloproteinase domain-containing protein 17 (Homo sapiens, UniProt P78536). The assay can be described thus: Inhibition of recombinant human tumor necrosis factor-alpha converting enzyme.
Assay [3] addresses T3, Stromelysin-1 (Homo sapiens, UniProt P08254). The assay can be described thus: Inhibition of recombinant human Matrix metalloprotease-3 at 1000 nM.
Target sequence in this assay (P08254 100-477 limits assumed): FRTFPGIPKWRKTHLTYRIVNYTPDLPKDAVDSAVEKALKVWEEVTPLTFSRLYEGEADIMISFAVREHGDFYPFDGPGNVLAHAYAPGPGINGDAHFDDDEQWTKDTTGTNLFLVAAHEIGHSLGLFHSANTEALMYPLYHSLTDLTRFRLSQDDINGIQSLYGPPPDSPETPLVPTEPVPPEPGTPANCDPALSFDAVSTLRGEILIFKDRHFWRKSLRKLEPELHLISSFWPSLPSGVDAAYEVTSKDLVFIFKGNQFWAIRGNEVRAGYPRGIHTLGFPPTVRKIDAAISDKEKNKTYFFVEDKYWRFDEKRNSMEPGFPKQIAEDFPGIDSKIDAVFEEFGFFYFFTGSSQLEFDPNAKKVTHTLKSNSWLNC
The target of assay [4] is T4, Interstitial collagenase (Homo sapiens) (UniProt P03956).
T4 sequence (whole entry): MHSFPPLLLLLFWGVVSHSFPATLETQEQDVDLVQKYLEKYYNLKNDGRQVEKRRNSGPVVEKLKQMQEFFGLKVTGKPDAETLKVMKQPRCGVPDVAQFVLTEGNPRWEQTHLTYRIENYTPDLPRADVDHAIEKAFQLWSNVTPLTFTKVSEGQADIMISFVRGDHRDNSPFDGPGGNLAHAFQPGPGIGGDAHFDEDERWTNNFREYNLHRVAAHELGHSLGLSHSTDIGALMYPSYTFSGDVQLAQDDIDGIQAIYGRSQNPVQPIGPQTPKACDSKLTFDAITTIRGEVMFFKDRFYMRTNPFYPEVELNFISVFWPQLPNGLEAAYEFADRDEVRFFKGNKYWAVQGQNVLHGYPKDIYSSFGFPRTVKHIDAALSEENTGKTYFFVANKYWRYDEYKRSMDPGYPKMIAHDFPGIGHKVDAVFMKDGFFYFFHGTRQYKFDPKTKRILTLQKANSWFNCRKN
Description: Inhibition of recombinant human matrix metalloprotease-1 at 1000 nM.

Assay [5] concerns the target T3, Stromelysin-1. The assay can be described thus: Inhibition of recombinant human Matrix metalloprotease-3.
Target sequence in this assay (P08254 whole entry): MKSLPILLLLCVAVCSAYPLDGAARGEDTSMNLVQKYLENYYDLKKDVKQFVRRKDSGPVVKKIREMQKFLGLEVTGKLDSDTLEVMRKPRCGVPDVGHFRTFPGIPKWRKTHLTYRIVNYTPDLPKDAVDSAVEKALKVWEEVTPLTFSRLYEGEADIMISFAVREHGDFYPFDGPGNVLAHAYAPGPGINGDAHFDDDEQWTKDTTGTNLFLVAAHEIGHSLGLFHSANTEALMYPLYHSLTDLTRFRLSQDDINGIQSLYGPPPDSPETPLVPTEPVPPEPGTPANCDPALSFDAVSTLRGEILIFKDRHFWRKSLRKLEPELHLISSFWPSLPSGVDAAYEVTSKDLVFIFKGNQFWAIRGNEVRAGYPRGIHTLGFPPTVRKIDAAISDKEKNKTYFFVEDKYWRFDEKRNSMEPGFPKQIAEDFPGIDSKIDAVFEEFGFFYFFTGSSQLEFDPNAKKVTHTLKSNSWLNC
For assay [6], the target named is T1, Matrix metalloproteinase-9. The assay can be described thus: Inhibition of recombinant human Matrix metalloprotease-9.
Assay [7] deals with T5, Interstitial collagenase (Homo sapiens, UniProt P03956).
T5 sequence (P03956 whole entry): T4 sequence (whole entry)
The assay can be described thus: Inhibition of recombinant human matrix metalloprotease-1.

The target in assay [8] is T5, Interstitial collagenase. The assay can be described thus: Inhibition of recombinant human Matrix metalloprotease-1.
In assay [9] the target is T2, Disintegrin and metalloproteinase domain-containing protein 17. As to conditions: 1000 nM.
Description: Inhibition of recombinant human TACE at 1000 nM
The target of assay [10] is T4, Interstitial collagenase (Homo sapiens). Description: Inhibition of recombinant human Matrix metalloprotease-1 at 1000 nM.

T2 sequence (P78536 whole entry, the tested form may be a part): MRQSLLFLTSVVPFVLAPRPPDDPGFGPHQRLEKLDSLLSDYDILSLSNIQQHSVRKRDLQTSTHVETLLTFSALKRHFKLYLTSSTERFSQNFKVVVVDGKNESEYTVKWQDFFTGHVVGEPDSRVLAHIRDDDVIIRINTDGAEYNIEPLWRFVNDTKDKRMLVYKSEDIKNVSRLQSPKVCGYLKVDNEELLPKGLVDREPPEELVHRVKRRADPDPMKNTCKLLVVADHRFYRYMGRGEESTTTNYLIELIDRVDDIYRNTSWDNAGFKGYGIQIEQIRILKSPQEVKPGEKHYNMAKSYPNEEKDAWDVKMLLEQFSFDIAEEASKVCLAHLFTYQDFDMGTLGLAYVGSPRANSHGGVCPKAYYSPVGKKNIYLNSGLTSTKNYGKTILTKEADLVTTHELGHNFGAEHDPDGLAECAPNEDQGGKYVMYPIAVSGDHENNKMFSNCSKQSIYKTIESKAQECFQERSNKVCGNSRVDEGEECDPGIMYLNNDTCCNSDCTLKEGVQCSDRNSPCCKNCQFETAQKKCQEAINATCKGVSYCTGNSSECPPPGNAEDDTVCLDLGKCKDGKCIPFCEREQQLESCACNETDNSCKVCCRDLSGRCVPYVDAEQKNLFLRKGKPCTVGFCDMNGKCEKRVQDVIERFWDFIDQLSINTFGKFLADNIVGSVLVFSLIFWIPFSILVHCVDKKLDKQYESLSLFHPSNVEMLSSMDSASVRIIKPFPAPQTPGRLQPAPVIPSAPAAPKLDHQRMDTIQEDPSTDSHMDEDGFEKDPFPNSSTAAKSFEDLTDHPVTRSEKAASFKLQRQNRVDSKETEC

`CCOP(=O)(N[C@@H](CC(C)C)C(=O)NO)c1ccc(OC)cc1` (stereo partly specified): the inhibition in assay [1] was 17%; on Stromelysin-1 [3], 17%; in [4], 10%. For the same molecule, the Ki in assay [2] is 0.0764 µM.
`CCOP(=O)(N[C@H](CCC(=O)NCCc1ccccc1)C(=O)NO)c1ccc(OC)cc1` (stereo partly specified): the Ki in assay [2] is 0.0276 µM; on Stromelysin-1 [5], 0.00729 µM; in [6], 0.0237 µM; on Interstitial collagenase [7] it was 0.0404 µM.
`CCOP(=O)(c1ccc(OC)cc1)N1Cc2ccccc2C[C@@H]1C(=O)NO` (single isomer, unassigned): the inhibition constant (Ki) in [2] was 0.00715 µM.
Consider `CCOP(=O)(N[C@H](CC(C)C)C(=O)NO)c1ccc(OC)cc1` (stereo partly specified), for which the Ki on Interstitial collagenase [8] amounted to 0.196 µM; in assay [2], 0.00506 µM; on Stromelysin-1 [5], 0.0698 µM; in assay [6], 0.165 µM.
With `CCOP(=O)(N[C@@H](CCC(=O)NCCc1ccccc1)C(=O)NO)c1ccc(OC)cc1` (stereo partly specified), the inhibition in [1] came to 24%; at Stromelysin-1 [3] it was 47%; in [4] it was 27%. Further, in assay [2], the Ki was 0.01 µM.
Turning to `CCOP(=O)(c1ccc(OC)cc1)N1Cc2ccccc2C[C@H]1C(=O)NO` (single isomer, unassigned), the inhibition in assay [9] is 41%; in assay [1], 18%; in [10], 26%; at Stromelysin-1 [3], 9%.
